Measured values from DBAASP.
≈ marks a conversion by molar mass, not a printed value. Where “and” joins values, the source holds several entries; their conditions need not be identical. Equal entries are not always repeated. One block for each molecule: values may come before it.

What was measured:
Assay in all cases: ≥ marks a high value that may be exact or a test limit, other limits are often not marked, values filed in µg/mL are converted to µM
[1] = test system: Streptococcus pneumoniae BCRC 10794
Bacillus cereus AS1.126 = test system: Bacillus cereus AS1.126
Bacillus cereus = test system: Bacillus cereus
Bacillus subtilis = test system: Bacillus subtilis
[2] = test system: Candida albicans CCM 8186
[3] = test system: Candida albicans CMCC 98001
[4] = test system: Candida albicans PCM 2566
[5] = test system: Candida glabrata CCM 8270
Candida krusei CCM 8271 = test system: Candida krusei CCM 8271
[6] = test system: Candida parapsilosis CCM 8260
[7] = test system: Candida tropicalis CCM 8264
[8] = test system: Enterobacter cloacae CGMCC 1.58
[9] = test system: Enterococcus faecalis CGMCC 1.595
[10] = test system: Enterococcus faecium CGMCC 1.2334
Escherichia coli AS1.349 = test system: Escherichia coli AS1.349
[11] = test system: Escherichia coli PCM 2057
[12] = test system: Fusobacterium nucleatum CGMCC 1.2526
[13] = test system: Klebsiella pneumoniae subsp. pneumoniae CGMCC 1.176
[14] = test system: Lactobacillus acidophilus CGMCC 1.1854
[15] = test system: Proteus mirabilis CICC 22931
[16] = test system: Pseudomonas aeruginosa CGMCC 1.860
[17] = test system: Pseudomonas aeruginosa PCM 499
[18] = test system: Staphylococcus aureus AS1.72
[19] = test system: Staphylococcus aureus PCM 2054
[20] = test system: Staphylococcus aureus PMC 1650
[21] = test system: Staphylococcus epidermidis CICC 23664
[22] = test system: Staphylococcus epidermidis PCM 2118
[23] = test system: Staphylococcus epidermidis PCM 521
[24] = test system: Streptococcus mutans CGMCC 1.2500
[25] = test system: Streptococcus salivarius CGMCC 1.2498
[26] = test system: Streptococcus sanguinis CGMCC 1.2497
[27] = test system: Bacillus subtilis ATCC 6633
[28] = test system: Escherichia coli DH5alpha
[29] = test system: Escherichia coli DSM 1103
[30] = test system: Kocuria rhizophila DSM 348
[31] = test system: Micrococcus luteus DSM 1790
[32] = test system: Staphylococcus aureus DSM 1104
[33] = test system: Escherichia coli KCTC 2223
[34] = test system: Micrococcus luteus ATCC 10240
[35] = test system: Salmonella typhimurium KCTC 2370
[36] = test system: Staphylococcus aureus ATCC 15752
[37] = test system: Bacillus subtilis ATCC 62037
[38] = test system: Candida albicans ATCC 10231
[39] = test system: Escherichia coli ATCC 27325
[40] = test system: Pseudomonas putida ATCC 17426
[41] = test system: Saccharomyces cerevisiae ATCC 44774
[42] = test system: Salmonella enterica subsp. enterica serovar Enteritidis ATCC 13076
[43] = test system: Streptococcus mutans ATCC 25175

SMILES: CC[C@H](C)[C@H](NC(C)=O)C(=O)N[C@@H](Cc1cnc[nH]1)C(=O)NCC(=O)N[C@@H](CC(C)C)C(=O)N[C@H](C(N)=O)C(C)C [IHGLV]
MIC [1]: ≥ 186 µM

SMILES: CC[C@H](C)[C@H](N)C(=O)N[C@@H](CCCCN)C(=O)N[C@@H](CCCCN)C(=O)N[C@H](C(=O)N[C@@H](CC(C)C)C(=O)N[C@@H](CO)C(=O)N[C@@H](CCCCN)C(=O)N[C@H](C(=O)N[C@@H](CCCCN)C(=O)N[C@@H](CCCCN)C(=O)N[C@@H](CC(C)C)C(=O)N[C@@H](CC(C)C)C(=O)N[C@@H](CCCCN)C(N)=O)[C@@H](C)CC)[C@@H](C)CC [IKKILSKIKKLLK]
MIC (Bacillus cereus AS1.126): 6.25 µM (≈ 9.7 µg/mL)
MIC (Bacillus cereus): ≥ 32.2 µM
MIC (Bacillus subtilis): 5.02 µM (≈ 7.8 µg/mL)
MIC [2]: 20.2 µM (≈ 31.3 µg/mL)
MIC [3]: 6.25 µM (≈ 9.7 µg/mL)
MIC [4]: ≥ 32.2 µM
MIC [5]: 20.2 µM and 20.1 µM
MIC (Candida krusei CCM 8271): 5.02 µM and 8.05 µM
MIC [6]: 5.02 µM and 8.05 µM
MIC [7]: 1.29 µM (≈ 2 µg/mL)
MIC [8]: ≥ 100 µM
MIC [9]: 3.13 µM (≈ 4.86 µg/mL)
MIC [10]: 5 µM (≈ 7.76 µg/mL)
MIC (Escherichia coli AS1.349): 3.13 µM (≈ 4.86 µg/mL)
MIC [11]: ≥ 80.5 µM
MIC [12]: 4.69 µM (≈ 7.28 µg/mL)
MIC [13]: ≥ 100 µM
MIC [14]: 3.13 µM (≈ 4.86 µg/mL)
MIC [15]: ≥ 100 µM
MIC [16]: 6.25 µM (≈ 9.7 µg/mL)
MIC [17]: 16.1 µM (≈ 25 µg/mL)
MIC [18]: 5 µM (≈ 7.76 µg/mL)
MIC [19]: ≥ 64.4 µM
MIC [20]: ≥ 32.2 µM
MIC [21]: 4.69 µM (≈ 7.28 µg/mL)
MIC [22]: 5.02 µM and 4.02 µM
MIC [23]: 4.02 µM (≈ 6.25 µg/mL)
MIC [24]: 3.13 µM (≈ 4.86 µg/mL)
MIC [25]: 6.25 µM (≈ 9.7 µg/mL)
MIC [26]: 6.25 µM (≈ 9.7 µg/mL)

SMILES: CC[C@H](C)[C@H](NC(=O)[C@H](CCCCN)NC(=O)CNC(=O)[C@H](C)NC(=O)[C@@H](NC(=O)[C@H](CCCCN)NC(=O)[C@H](C)NC(=O)[C@@H](NC(=O)[C@H](CCCCN)NC(=O)CNC(=O)[C@H](C)NC(=O)[C@@H](NC(=O)[C@H](CCCCN)NC(=O)[C@H](C)NC(=O)[C@@H](NC(=O)[C@H](CCCCN)NC(=O)CNC(=O)[C@H](C)NC(=O)[C@@H](NC(=O)[C@@H](N)CCCCN)[C@@H](C)CC)[C@@H](C)CC)[C@@H](C)CC)[C@@H](C)CC)[C@@H](C)CC)C(=O)N[C@@H](C)C(=O)O [KIAGKIAKIAGKIAKIAGKIA]
MIC [27]: 3.88 µM (≈ 8 µg/mL)
MIC [28]: 7.75 µM (≈ 16 µg/mL)
MIC [29]: 3.88 µM (≈ 8 µg/mL)
MIC [30]: ≥ 62 µM
MIC [31]: 7.75 µM (≈ 16 µg/mL)
MIC [32]: ≥ 62 µM

Next, values leading:

MIC [33]: 16 µM (≈ 30.2 µg/mL)
MIC [34]: 1 µM (≈ 1.89 µg/mL)
MIC [35]: 8 µM (≈ 15.1 µg/mL)
MIC [36]: 1 µM (≈ 1.89 µg/mL)
SMILES: CC(C)C[C@H](NC(=O)[C@H](CCCCN)NC(=O)[C@H](CCC(N)=O)NC(=O)[C@H](CCCCN)NC(=O)[C@H](CC(C)C)NC(=O)[C@H](CC(C)C)NC(=O)[C@H](CCC(N)=O)NC(=O)[C@H](CC(C)C)NC(=O)[C@H](CC(C)C)NC(=O)[C@@H]1CCCN1C(=O)[C@H](CCCN=C(N)N)NC(=O)[C@H](CC(C)C)NC(=O)[C@H](CC(C)C)NC(=O)[C@@H](N)CCCN=C(N)N)C(=O)N[C@@H](CCCN=C(N)N)C(=O)O [RLLRPLLQLLKQKLR]

MIC [37]: 0.713 µM (≈ 2 µg/mL)
MIC [38]: 1.43 µM (≈ 4 µg/mL)
MIC [39]: 1.43 µM (≈ 4 µg/mL)
MIC [40]: 0.713 µM (≈ 2 µg/mL)
MIC [41]: 0.356 µM (≈ 1 µg/mL)
MIC [42]: 0.713 µM (≈ 2 µg/mL)
MIC [36]: 0.713 µM (≈ 2 µg/mL)
MIC [43]: 0.713 µM (≈ 2 µg/mL)
SMILES: CC[C@H](C)[C@H](NC(=O)[C@@H]1CCCN1C(=O)[C@H](Cc1c[nH]c2ccccc12)NC(=O)[C@H](CCC(N)=O)NC(=O)[C@H](CCCN=C(N)N)NC(=O)[C@@H](NC(=O)[C@@H](NC(=O)[C@@H](N)CCCN=C(N)N)C(C)C)C(C)C)C(=O)NCC(=O)N[C@@H](CCCN=C(N)N)C(=O)N[C@H](C(=O)N[C@H](C(=O)N[C@@H](CCCN=C(N)N)C(=O)N[C@@H](CCCN=C(N)N)C(=O)N[C@H](C(=O)N[C@H](C(=O)N[C@@H](CCCN=C(N)N)C(=O)N[C@@H](CCCN=C(N)N)C(=O)N[C@H](C(=O)N[C@H](C(=O)N[C@@H](CCCN=C(N)N)C(=O)N[C@@H](Cc1ccc(O)cc1)C(=O)O)C(C)C)C(C)C)C(C)C)C(C)C)C(C)C)C(C)C [RVVRQWPIGRVVRRVVRRVVRY]
